Source: patent US10487115B2, “Proteinaceous compounds and uses therefor” (UNIVERSITY OF CANBERRA, priority 2016, dated 2019)
Ends that are not written are not given here. * marks the point of attachment. Myristoyl = CCCCCCCCCCCCCC(=O)*

Columns and labels:
PKC-θ [1] = target: T1, PKC-θ (Homo sapiens, UniProt Q04759); experiment: Nuclear localization of PKC-θ (PKC-θ-phosphor-T538 antibody) in MCF7 cells treated with peptide inhibitors of other PKC isoforms; type: cell-based; details: 50 μM peptide inhibitor 24 hr, PMA 0.65 ng/mL 60 hr, N-myristoylated
T1 construct: endogenous in cells; host or cells: MCF7
T1 sequence (Q04759 whole entry, canonical isoform): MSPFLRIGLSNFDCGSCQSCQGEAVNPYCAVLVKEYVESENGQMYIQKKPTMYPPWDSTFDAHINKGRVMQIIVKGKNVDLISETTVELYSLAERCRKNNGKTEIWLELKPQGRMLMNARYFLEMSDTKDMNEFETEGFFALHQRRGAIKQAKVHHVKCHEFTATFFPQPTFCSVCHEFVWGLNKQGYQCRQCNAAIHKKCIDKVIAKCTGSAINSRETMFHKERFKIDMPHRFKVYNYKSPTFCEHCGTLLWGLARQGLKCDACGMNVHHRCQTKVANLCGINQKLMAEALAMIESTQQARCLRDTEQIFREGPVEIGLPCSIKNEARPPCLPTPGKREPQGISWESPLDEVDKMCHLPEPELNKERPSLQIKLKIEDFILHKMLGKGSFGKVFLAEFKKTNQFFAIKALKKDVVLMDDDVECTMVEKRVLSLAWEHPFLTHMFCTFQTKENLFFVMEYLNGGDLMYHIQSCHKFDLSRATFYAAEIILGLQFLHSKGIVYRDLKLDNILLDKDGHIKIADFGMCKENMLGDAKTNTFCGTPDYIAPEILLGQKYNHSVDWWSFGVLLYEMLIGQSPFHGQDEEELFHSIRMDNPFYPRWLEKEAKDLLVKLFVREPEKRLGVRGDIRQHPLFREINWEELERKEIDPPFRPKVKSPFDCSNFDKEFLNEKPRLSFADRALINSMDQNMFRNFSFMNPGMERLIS
Procedure: nPKC-β1, nPKC-ε and nPKC-δ peptide inhibitors were designed based on the nuclear localization signal of PKC-β1, PKC-ε and PKC-δ respectively. These peptides were synthesized and N-myristoylated using the method of Example 1.
MCF7 cells were pre-seeded overnight on sterile coverslips in 12 well plates with 1 mL of completed DMEM before inhibiting with 50 μM of nPKC-β1, nPKC-ε or nPKC-δ peptide inhibitor respectively for 24 hr. Inhibitors were not removed when MCF7 cells were stimulated with 0.65 ng/mL of PMA for 60 hr. DEPC-water was used for control (test peptides were dissolved in sterile DEPC-water). After washing with DPBS twice, samples on coverslips were fixed with 4% paraformaldehyde for 10 minutes and stained with PKC-θ-phosphor-T538 primary Antibody and conjugated Alexa-488 secondary Antibody. Cell nucleus was stained with anti-fade DAPI. When samples were dried overnight, Nikon fluorescence microscopy was used to take photos. ImageJ software was used for densimetric analysis. Fn/c was calculated using the formula: Fn/c=(nuclear density-background density)/(cytoplasmic density-background density).

[2] = tested on: cancer stem cell markers (CSV, LSD1p, PKC-θ and PDL1); experiment: Expression of cancer stem cell markers in MDA-MB-231 xenograft cells (confocal microscopy, TNFI/TCFI); type: in vivo, Balb-c nude mice; details: importinib4759 40 mg/kg, docetaxel 4 mg/kg
Procedure: The effect of Importinib4759 on the expression of cancer stem cell markers in MDA-MB-231 xenograft breast cancer cells from Balb-c nude mice was evaluated using confocal laser scanning microscopy.
MDA-MB-231 xenograft breast cancer cells from Balb-c nude mice were treated and prepared as per the method of Example 7. Test compounds included control (saline), docetaxel (4 mg/kg), importinib4759 (40 mg/kg; synthesized in accordance with Example 1) or a combination of importinib4759 (40 mg/kg) and docetaxel (4 mg/kg). The single cell suspensions were fixed with 3.7% formaldehyde and permeabilized with 2% Triton-X-100 and were then probed with primary mouse antibodies to CSV, primary goat antibodies to PDL1 and primary rabbit antibodies to phosphorylated LSD1 (LSD1p; lysine-specific histone demethylase 1A) or PKC-θ followed by the corresponding secondary antibody conjugated to anti mouse Alexa-Fluor 568, anti-goat Alexa-Fluor 633 or anti-rabbit Alexa-Fluor 488. The cell nucleus was stained with anti-fade DAPI. TNFI (Total Nuclear Fluorescence Intensity) or TCFI (Total Cytoplasmic Fluorescence Intensity) values were calculated for at least 20 individual cells per sample. Data shown represent the mean±SE grouped into time point of collection.

[3] = tested on: M1 macrophage markers (LSD1p, CCR7 and CD38); experiment: Expression of M1 macrophage markers in MDA-MB-231 xenograft cells (confocal microscopy, TNFI/TCFI); type: in vivo, Balb-c nude mice; details: importinib4759 40 mg/kg, docetaxel 4 mg/kg
Procedure: (§1) The effect of Importinib4759 on the expression of cancer associated fibroblast (CAF) and macrophage in MDA-MB-231 xenograft breast cancer cells from Balb-c nude mice was evaluated using confocal laser scanning microscopy. MDA-MB-231 xenograft breast cancer cells from Balb-c nude mice were treated and prepared as per the method of Example 7. Test compounds included control (saline), docetaxel (4 mg/kg), importinib4759 (40 mg/kg; synthesized in accordance with Example 1) or a combination of importinib4759 (40 mg/kg) and docetaxel (4 mg/kg). The single cell suspensions were fixed with 3.7% formaldehyde and permeabilized with 2% Triton-X-100 and were then probed with a set of CAF signature antibodies [primary mouse antibodies to FAP (fibroblast activation protein), primary goat antibodies to CCL2 (chemokine (C-C motif) ligand 2) and primary rabbit antibodies to LSD1 (lysine-specific histone demethylase 1A; a target of PKC-θ)] or M1 macrophage markers [primary mouse antibodies to CCR[…] chemokine receptor type 7), primary goat antibodies to CD38 (cluster of differentiation 38) and primary rabbit antibodies to LSD1p (a target of PKC-θ)], followed by the corresponding secondary antibody conjugated to anti mouse Alexa-Fluor 568, anti-goat Alexa-Fluor 633 or anti-rabbit Alexa-Fluor 488. […] TNFI or TCFI values were calculated for at least 20 individual cells per sample. […]

[4] = tested on: CAF markers (FAP, LSD1 and CCL2); experiment: Expression of CAF markers in MDA-MB-231 xenograft cells (confocal microscopy, TNFI/TCFI); type: in vivo, Balb-c nude mice; details: importinib4759 40 mg/kg, docetaxel 4 mg/kg
Procedure: as §1

PKC-θ [5] = target: T1, PKC-θ; experiment: Nuclear translocation of PKC-θ in PMA-stimulated MCF7 cells (immunofluorescence, Fn/c); type: cell-based; details: 50 μM peptide 24 hr, then PMA 0.65 ng/mL 60 hr, N-myristoylated peptides, p<0.0001 relative to control
Procedure: MCF7 cells were pre-seeded overnight on sterile coverslips in 12 well plates with 1 mL of completed Dulbecco's modified eagle medium (DMEM) before incubating with 50 μM of importinib4759 (synthesized in accordance with Example 1) and importinib4759_O1 (synthesized in accordance with Example 1) for 24 hr. Test peptides were not removed when MCF7 cells were stimulated with 0.65 ng/mL of phorbol 12-myristate 13-acetate (PMA) for 60 hr. Diethylpyrocarbonate (DEPC)-water was used for control (test peptides were dissolved in sterile DEPC-water). After wash with Dulbecco's phosphate buffered saline (DPBS) twice, samples on coverslips were fixed with 4% paraformaldehyde for 10 minutes and stained with PKC-θ (Cat. SC-212), PKC-θ-Phosphor-T538, PKC-β2, PKC-α, Importin α, or Importin 8 primary Antibody respectively and conjugated Alexa-488 secondary Antibody. Cell nucleus was stained with anti-fade 2-(4-amidinophenyl)-6-indolecarbamidine dihydrochloride (DAPI). When samples were dried overnight, Nikon fluorescence microscopy was used to take photos. ImageJ software was used for densimetric analysis. Fn/c was calculated using the formula: Fn/c=(nuclear density-background density)/(cytoplasmic density-background density).

MCF7 cells = experiment: CD44hiCD24lo cancer stem cell formation in MCF-IM model (FACS); type: cell-based, human; details: importinib4759 5004 and 100 μM, importinib4759_O1 2504 and 50 μM, 24 hr before PMA 60 hr, p=0.0079 relative to control
Procedure: (§2) 5×10^4 MCF7 cells were seeded with 1 mL of complete DMEM in 12 well plates overnight, then importinib4759 (5004 and 100 μM; synthesized in accordance with Example 1) or importinib4759_O1 (2504 and 50 μM; synthesized in accordance with Example 1) were used to treat cells for 24 hr before stimulation with PMA for 60 hr. Samples were harvested by trypsinization followed by washing with DPBS containing 2% heat inactivated foetal bovine serum (HI-FBS). FACS staining were performed using anti-human CD44-APC, anti-human CD24-PE, Hoechst, and anti-human EpCAM antibody cocktails. Data was collected from BD FACSLSR-II flow cytometer. Treestar FlowJo was used for data analysis.

MDA-MB-231 xenograft = experiment: Balb/c-nude MDA-MB-231 xenograft breast cancer model: tumor volume and cancer stem cell proportion; type: in vivo, balb/c-nude mice
Procedure: A Balb/c-nude MDA-MB-231 xenograft breast cancer model was utilized to determine the effect of the importinib peptides alone and in combination with the chemotherapeutic, docetaxel in comparison to a randomized peptide control.
Five week old balb/c-nude mice (n=5 per test compound) were injected with MDA-MB-231 human breast carcinoma cell suspensions (2×10^6 cells in 25 μL PBS mixed with 25 μL of BD Matrigel Matrix) subcutaneously into the right mammary gland. Test compounds in a saline vehicle [4 mg/kg docetaxel; 8 mg/kg, 40 mg/kg and 60 mg/kg importinib4759 or importinib4759_O1 (synthesized in accordance with Example 1); 4 mg/kg docetaxel with 8 mg/kg importinib4759 or importinib4759_O1; 4 mg/kg docetaxel with 40 mg/kg importinib4759 or importinib4759_O1; 4 mg/kg docetaxel with 60 mg/kg importinib4759 or importinib4759_O1; or randomized peptide control] were injected intraperitoneally. Tumor volume was assessed using calipers daily over a period of five weeks following treatment. Animals were sacrificed after the five week period. Tumor grafts were removed using resection and processed into single cell suspensions. The percentage of cancer stem cells was determined using FACS analysis. FACS staining was performed using anti-human CD44-APC, anti-human CD24-PE, Hoechst, and anti-human EpCAM antibody cocktails. Data was collected from BD FACSLSR-II flow cytometer. Treestar FlowJo was used for data analysis. Significance was determined using a one-way ANOVA or Mann-Whitney T-test.

MDA-MB-231 cells = experiment: CD44hiCD24lo cancer stem cells in MDA-MB-231 model (FACS); type: cell-based, human; details: 50 μM or 100 μM importinib4759, 48 hr, p<0.0001 relative to control
Procedure: as §2, with “5×10^4 MDA-MB-231” for “5×10^4 MCF7”, “for 48” for “for 24”, “before samples” for “before stimulation with PMA for 60 hr. Samples”, “2% HI-FBS.” for “2% heat inactivated foetal bovine serum (HI-FBS).”, “staining was” for “staining were”

Compound | effect on nuclear localization of PKC-θ (PKC-θ [1]) | expression of cancer stem cell markers (CSV, LSD1p, PKC-θ, PDL1) [2] | expression of M1 macrophage markers (LSD1p, CCR7, CD38; docetaxel result stated for CCR7 and CD38) [3] | expression of CAF markers (FAP, LSD1np, CCL2) [4] | further results
RKEIQPPYKPKAR (Myristoyl-RKEIQPPYKPKAR) [nPKC-β1] | had no effect |  |  |  | 
CC(=O)O[C@@]12CO[C@@H]1C[C@H](O)[C@@]1(C)C(=O)[C@H](O)C3=C(C)[C@@H](OC(=O)[C@H](O)[C@@H](NC(=O)OC(C)(C)C)c4ccccc4)C[C@@](O)([C@@H](OC(=O)c4ccccc4)[C@H]21)C3(C)C [docetaxel, reference compound] |  | increased expression of cancer stem cell markers | unaffected | significantly increased the expression of CAF markers | 
KRRLEPPFRPKVK [nPKC-δ] | had no effect |  |  |  | 
KKIKPPFKPRIKTKR (Myristoyl-KKIKPPFKPRIKTKR) [nPKC-ε] | had no effect |  |  |  | 
RKEIDPPFRPKVK-OH (Myristoyl-RKEIDPPFRPKVK-OH; SMILES CCCCCCCCCCCCCC(=O)N[C@@H](CCCNC(=N)N)C(=O)N[C@@H](CCCCN)C(=O)N[C@@H](CCC(=O)O)C(=O)N[C@H](C(=O)N[C@@H](CC(=O)O)C(=O)N1CCC[C@H]1C(=O)N1CCC[C@H]1C(=O)N[C@@H](Cc1ccccc1)C(=O)N[C@@H](CCCNC(=N)N)C(=O)N1CCC[C@H]1C(=O)N[C@@H](CCCCN)C(=O)N[C@H](C(=O)N[C@@H](CCCCN)C(=O)O)C(C)C)[C@@H](C)CC) [Importinib4759, tested N-myristoylated] |  | significantly abrogated expression of cancer stem cell markers | augmented | abrogated expression of CAF markers | blocking of nuclear PKC-θ (nuclear translocation) (PKC-θ [5]): capable of blocking nuclear PKC-θ; cancer stem cell (CD44hiCD24lo) formation (MCF7 cells): inhibited; cancer stem cell (CD44highCD24low) population in tumor grafts (MDA-MB-231 xenograft; FACS of resected tumor grafts after five weeks): significantly abrogating the cancer stem cell population; tumor volume in comparison to the control or docetaxel treatment alone (MDA-MB-231 xenograft; intraperitoneal, peptide 8, 40 and 60 mg/kg, docetaxel 4 mg/kg, five weeks): abrogating tumor volume; tumor volume over time (MDA-MB-231 xenograft; intraperitoneal, peptide 8, 40 and 60 mg/kg, docetaxel 4 mg/kg, five weeks, n=5): significantly reduced tumor volume over time; reduction of CD44hiCD24lo cancer stem cells (MDA-MB-231 cells): Significant reduction of cancer stem cells
